Data on three molecules can be found in patent publication US5346913A, “N-iodopropargyl hydantoin compounds, compositions, preparation, and use as antimicrobial agents” (Rohm and Haas Company, priority 1992, dated 1994).

The subject of one test is Staphylococcus aureus. Description: MIC, broth two-fold serial dilution test, Staphylococcus aureus (Saur). The test is classed as cell-based. From the text:
(§1) The compounds identified with a prime (') were the non-iodo analogues of the invention compounds, i.e., the compounds of formula III or IV. All data are reported in ppm of active ingredient required to control the respective organism. The indication "No In." means that the compound had no inhibitory activity at 500 ppm which was the maximum tested, and so if the "No In." compound were active, the minimum inhibitory concentration would be above 500 ppm. The comparative tests were not run side-by-side, but were run on different days using the same methods. […] A minimum inhibitory concentration (MIC) value is obtained using a broth, two-fold serial dilution test performed as follows: […] A volume of the stock solution is dispensed into culture media to give an initial starting test concentration of the compound of 500 ppm or 250 ppm. When the test is ready to be done, each vessel in the dilution series, except the first vessel, contains an equal volume of compound free broth. The first vessel contains twice the volume of broth with the starting concentration of test compound. One half of the broth from the first vessel is transferred to the second vessel. After being mixed, one half the resulting volume is removed from the second vessel and transferred to the third vessel. […] Each vessel is then inoculated with a cell suspension of the appropriate test organism. Bacteria are grown in broth and fungi on agar […] is grown in cooling tower media for a time and at a temperature appropriate to the species being tested. At the end of the growth period, the broth is vortexed to disperse the cells. In the case of fungi, the spores are harvested by pipetting water onto the slant and dislodging the spores with a sterile loop. The cell/spore suspension is standardized by controlling incubation time, temperature, and the volume of the diluent. The suspension is then used to inoculate the vessels containing the broth compound. The vessels are then incubated at the appropriate temperature. After the incubation, the vessels are examined for growth/no growth. The MIC is defined as the lowest concentration of compound that results in complete inhibition of growth of the test organism. BACTERIA: Pseudomonas fluorescens (Ps.fl), gram negative; Pseudomonas aerugenosa (Ps.ae), gram negative; Escherichia coli (E.c), gram negative; and Staphylococcus aureus (S.a), gram positive.

For a further test, the system named is Phytophthora infestans. As to the kind of experiment: whole plant or invertebrate. Type of test: in vivo.
In a further test the test system is Septoria nodorum. The following applies: in vivo.
Test [1] deals with Erysiphe graminis (f. sp. tritici). As to the kind of experiment: whole plant or invertebrate. Type of test: in vivo.
A further test concerns Pseudomonas aerugenosa. Description: MIC, broth two-fold serial dilution test, Pseudomonas aerugenosa (Psae). The test is classed as cell-based.
Excerpt: as §1

For test [2], the system named is Pellicularia filamentosa (f. sp. sasiki). As to the kind of experiment: whole plant or invertebrate. The test is classed as in vivo. The settings on record: 120 h; read-out: % Control RSB.
Another test has as its system TLB, CDM, WLR, SNW, WPM. The settings on record: in vivo.
The test system of test [3] is Puccinia recondita (f. sp. tritici Races PKB and PLD). As to the kind of experiment: whole plant or invertebrate. Type of test: in vivo.
Test [4] deals with Piricularia oryzae. Description: whole plant or invertebrate. The test is classed as in vivo. The following applies: Pyricularia oryzae, read-out: % Control RB.
The subject of a further test is Escherichia coli. As to the kind of experiment: MIC, broth two-fold serial dilution test, Escherichia coli (Ecol). Type of test: cell-based.
Excerpt: as §1

In test [5] the test system is Pseudoperonospora cubensis. Description: whole plant or invertebrate. The test is classed as in vivo.
The next test has as its system Aspergillus niger. As to the kind of experiment: MIC, broth two-fold serial dilution test, Aspergillus niger (Anig). The settings on record: TSB. The test is classed as cell-based.
Excerpt: as §1, with “INDUSTRIAL FUNGI: Aspergillus niger (A.n); Aureobasidium pullulans (A.p)” for “BACTERIA: Pseudomonas fluorescens (Ps.fl), gram negative; Pseudomonas aerugenosa (Ps.ae), gram negative; Escherichia coli (E.c), gram negative; and Staphylococcus aureus (S.a), gram positive.”

In a further test the test system is Xanthomonas campestris. Description: microbe, parasite or virus in culture. The following applies: read-out: % Control XAN. Type of test: cell-based.
The test system of a further test is Fusarium roseum. Description: microbe, parasite or virus in culture. The settings on record: Fusarium sambucinum, read-out: % Control FUS.
The test system of test [6] is Piricularia oryzae. Description: microbe, parasite or virus in culture. Type of test: cell-based. The following applies: read-out: % Control PIR.
The test system of a further test is Phytophthora capsici. As to the kind of experiment: In-vitro plant disease test, PHY. Type of test: cell-based. The settings on record: read-out: % Control PHY.
A further test deals with Pythium ultimum. Description: In-vitro plant disease test, PYU. Type of test: cell-based. The following applies: Globisporangium ultimum, read-out: % Control PYU.
A further test has as its system Rhizoctonia solani. Description: microbe, parasite or virus in culture. Type of test: cell-based. The following applies: read-out: % Control RHI.
The next test has as its system Cochliobolus sativus. As to the kind of experiment: In-vitro plant disease test, HEL. The settings on record: Bipolaris sorokiniana, read-out: % Control HEL. Type of test: cell-based.
Where [7] appears, read: Phytophthora infestans, in Solanum lycopersicum, 96 h, read-out: % Control TLB, greenhouse test (Table 4), 200 ppm.
Where [8] appears, read: Blumeria graminis, read-out: % Control WPM.
[9] abbreviates: Puccinia recondita, 240 h, read-out: % Control WLR.
The mark [10] stands for this setting: Pseudoperonospora cubensis, in Cucumis sativus, 168 h, read-out: % Control CDM.

≈ marks a conversion by molar mass, not a printed value. Where two headings read alike, the source gives them in different places. Bounds are passed on as bounds.

Excerpt for Fusarium roseum: FUS Fusarium roseum (Ascomycete)
Transfers in steps 1 and 2 are done in a laminar flow hood. All 8 fungi and the bacterium used in this test are transferred and maintained on potato dextrose agar plates each week (2 plates/organism). Organisms are used when they are the following ages: a. […] Culture flasks are inoculated with 6 mycelial plugs each (except for Pythium which is inoculated with only 3 plugs) taken from PDA plates. All liquid shaker cultures are used after 2 days growth.
PYU, PHY, RHI and FUS cultures are ground up (2-3 5 second bursts in a blender) and all but Pythium and Phytophthora are filtered through a double layer of sterile cheesecloth to remove large mycelial clumps. Ten ml of the culture solutions of R. solani and F. roseum are added to 90 ml of YSB and 10 ml of the P. capsici is added to 90 ml ASB. […] The inoculum mixtures are placed in microtiter plates using a 12-tipped pipet. 175 μl (single dose) or 100 μl (dose-response test) of inoculum broth is placed in each well of the microtiter plates. The plates with inoculated media are placed in the refrigerator overnight. There are two replications per treatment.
This operation is carried out in a chemistry hood. Six microtiter plates have 245 microliters of sterile water added to their wells ahead of time. 10 Mg a.i. of the compounds are placed in 1 ml 1:1 acetone:methanol. 5 Microliters of this solution (6 microliters in the case of the 50 ppm dose) is pipetted into the microtiter plates containing the sterile water according to the grid. There are 45 compounds and 3 scattered control treatments per plate. There are 2 replicates per treatment. 25 Microliters of solution is transferred to the inoculated plates with a 96 well replicator. The replicator is flame sterilized with alcohol, rinsed with sterile water, and blotted on sterile paper towels between each transfer.

Regarding `O=C1N(c2cc(Cl)cc(Cl)c2)C(=O)C2(CCCC2)N1CC#CI` [Compound 4, 1-(3-iodo-2-propynyl)-3-(3,5-dichlorophenyl)-5,5-spirocyclopentane-hydantoin], the MIC in the test with Staphylococcus aureus (M9G), against Staphylococcus aureus (TSB), in the test with Pseudomonas aerugenosa (M9G), against Pseudomonas aerugenosa (TSB), in the test on Escherichia coli (M9G) and against Escherichia coli (TSB) was > 500 mg/L throughout. Moreover, the MIC against Aspergillus niger was found to be 16 mg/L (≈ 34.5 µM). Also, the pest or weed control at 200 ppm with Phytophthora infestans (setting [7]) stood at 95%; in the test with Phytophthora infestans (Phytophthora infestans, in Solanum lycopersicum, 96 h, read-out: % Control TLB, secondary greenhouse test (Table 5), 200 ppm) it was 0%; in test [1] (setting [8]), 25%; in [2], 50%; in [3] (setting [9]) it was 0%; in the test on Piricularia oryzae [4] it was 50%. In test [5] (setting [10]), the pest or weed control at 200 ppm came to 50%. Further, the pest or weed control at 50 ppm amounted to 0% in the test with Phytophthora infestans (Phytophthora infestans, in Solanum lycopersicum, 96 h, read-out: % Control TLB, secondary greenhouse test (Table 5), 50 ppm); 0% in test [1] (setting [8]); 50% in [2]; 0% in [3] (setting [9]); 50% in the test on Piricularia oryzae [4]. In the test on Phytophthora infestans (advanced greenhouse test (Table 6), 0.25 kg a.i./ha), the “percent disease control TLB” value was determined as 30.0%. In addition, the “percent disease control SNW” value in the test with Septoria nodorum came to 53.0%. Besides, the “percent disease control WPM” value in test [1] (in vivo) was 63.0%. Further, in the test on TLB, CDM, WLR, SNW, WPM, the “percent disease control Average” value is recorded as 65.2%. Further, in test [3] (in vivo), the “percent disease control WLR” value is on record as 80.0%. In addition, the “percent disease control CDM” value in test [5] (in vivo) is 100.0%.

Take `CC1(C)NC(=O)N(CC#CI)C1=O` [Compound 12]: the MIC with Staphylococcus aureus (M9G) was 125 mg/L (≈ 428 µM); against Staphylococcus aureus (TSB), 16 mg/L (≈ 54.8 µM); in the test with Pseudomonas aerugenosa (M9G) it was 250 mg/L (≈ 856 µM); against Pseudomonas aerugenosa (TSB), > 500 mg/L; against Escherichia coli (M9G) it was 125 mg/L (≈ 428 µM); in the test on Escherichia coli (TSB), 250 mg/L (≈ 856 µM). Also, the lowest concentration to inhibit growth in the test on Aspergillus niger (MIC) was 8 mg/L (≈ 27.4 µM). Moreover, the inhibition of growth at 25 ppm turned out to be 0% with Xanthomonas campestris; 75% in the test on Fusarium roseum; 90% in the test on Piricularia oryzae [6]; 100% with Phytophthora capsici; 100% in the test on Pythium ultimum; 100% in the test with Rhizoctonia solani. Further, the pest or weed control at 200 ppm in the test with Phytophthora infestans (setting [7]) was 0%; in test [1] (setting [8]) it was 0%; in test [3] (setting [9]) it was 25%; in the test with Piricularia oryzae [4], 95%; in test [5] (setting [10]) it was 0%.

For `CC1(C)C(=O)N(CC#CI)C(=O)N1CC#CI` [Compound 11], the MIC in the test on Staphylococcus aureus (M9G) is 32 mg/L (≈ 70.2 µM); against Pseudomonas aerugenosa (M9G) it was 125 mg/L (≈ 274 µM); with Escherichia coli (M9G), 64 mg/L (≈ 140 µM); with Aspergillus niger, < 4 mg/L. Also, the inhibition of growth at 25 ppm in the test on Xanthomonas campestris worked out at 0%; with Fusarium roseum it was 0%; with Cochliobolus sativus it was 90%; with Piricularia oryzae [6], 100%; in the test with Rhizoctonia solani, 100%. Further, the inhibition of growth at 50 ppm came to 0% in the test with Xanthomonas campestris, 100% with Fusarium roseum, 100% with Piricularia oryzae [6] and 100% in the test on Rhizoctonia solani. Also, the pest or weed control at 100 ppm in the test on Phytophthora infestans (Phytophthora infestans, in Solanum lycopersicum, 96 h, read-out: % Control TLB, greenhouse test (Table 4), 100 ppm) was determined as 0%; in test [1] (setting [8]), 85%; in test [3] (setting [9]), 50%; with Piricularia oryzae [4], 95%; in test [5] (setting [10]) it was 100%.

Broadly, the MIC is the lowest concentration that inhibits growth of the organism. Read a low MIC as a more susceptible organism.
